These results are taken from patent US20070155823A1, “USE OF BENZO-FUSED HETEROCYCLE SULFAMIDE DERIVATIVES AS NEUROPROTECTIVE AGENTS” (priority 2005, published 2007).

Data set [1] has as its system Rat Cerebral Cortical Cultures. Nature of the data set: Cell Titer Glow/Cell Viability in vitro assay, rat cerebral cortical cultures, insult with 150 μM H2O2. Format: cell-based. As to conditions: 150 μM H2O2 insult; for Cell viability (Cell Titer Glow), single plate: individual plates (each in triplicate), vehicle 0.8-1.2; for Cell viability (Cell Titer Glow), Mean: mean of 3 plates (n=9). The procedure: (§1) Cell Titer Glow/Cell Viability In Vitro Assay
(§2) The assay was run according to the procedure listed within the insert of the kit purchased from Promega (see attachment at the end of the application).
(§3) Cell Cultures were prepared as follows. Dissociated hippocampal and cortical cell cultures were established from embryonic day 18 rat fetuses. The fetuses were removed via cesarean section from pregnant dams (Harlan Sprague-Dawley) anesthetized with halothane according to the AVMA Panel on Euthanasia. Pups were decapitated and the brains were removed and placed in Hank's Balanced Salt solution (1×HBSS; Gibco, Rockville, Md.). The hippocampi and cortices were dissected out and pooled according to tissue-type. Tissue was trypsinized for 15 min (1 mg/ml trypsin-HBSS; Worthington, Lakewood, N.J.), rinsed with fresh HBSS, incubated in trypsin inhibitor (1 mg/ml; Sigma, St. Louis, Mo.) for 5 min, rinsed again with fresh HBSS and then triturated in 1 ml fresh HBSS with a fire-polished glass pipette. Dissociated cells were seeded at 10,000 cells/well onto poly-D-lysine coated 96-well plates (BD BioScience, Bedford, Ma.) containing 100 ul/well Eagle's Minimal Essential Media (MEM; Gibco) supplemented with 26 mM NaHCO3 (Sigma), 40 mM glucose (Sigma), 20 mM KCl (Sigma), 1 mM sodium pyruvate (Sigma), 10% (v/v) heat-inactivated fetal bovine serum (Hyclone, Logan, Utah), and 0.001% gentamicin sulfate (Sigma) (pH 7.4). Serum-free cultures were plated and maintained in Neurobasal medium+B27 supplement (Gibco). Cells were allowed to attach for 24 h in a humidified 37° C. 5% CO2 incubator before experimental treatment.
(§4) Test compounds were prepared as follows: A 10 mM stock in DMSO of each compound was diluted 1:50 in DPBS rendering a final stock of 200 μM. […] Equal amounts of vehicle or diluted compound were added to each culture well.
(§5) A 30% stock solution of hydrogen peroxide (H2O2; Sigma) was diluted with DPBS 1:100 to yield a […] stock. Five microliters of vehicle or H2O2 stock solution was added to each 100 ul culture well to yield a final concentration of 150 uM.
(§6) Note that in the data listed below, each plate was run in triplicate for a total of n=9.

A further data set deals with Rat Hippocampal Cultures. Nature of the data set: Cell Titer Glow/Cell Viability in vitro assay, rat hippocampal cultures, insult with 150 μM H2O2. Format: cell-based. As to conditions: for Cell viability (Cell Titer Glow), single plate / Cell viability (Cell Titer Glow), Mean: rat hippocampal cultures, 150 μM H2O2 insult; for Cell viability (Cell Titer Glow), single plate: individual plates (each in triplicate), vehicle 0.5-0.6; for Cell viability (Cell Titer Glow), Mean: mean of 3 plates (n=9), vehicle mean 0.5. Here is the method: as §1, §2, §3, §4, §5, §6

“And” between values parts separate entries of the source, which are not always exact repeats. Equal values may be shown once.

`NS(=O)(=O)NC[C@H]1COc2cc(Cl)ccc2O1` [Compound #8, (2S)-(−)-N-(6-Chloro-2,3-dihydro-benzo[1,4]dioxin-2-ylmethyl)-sulfamide]: the “Cell viability (Cell Titer Glow), single plate” value in data set [1] (compound 0.1 μM) was 28 and 64 and 97; in data set [1] (compound 1 μM), 19 and 51 and 38; in data set [1] (compound 10 μM), 10 and 18 and 51; with Rat Hippocampal Cultures (compound 0.1 μM) it was 24 (2×) and 26; in the data set with Rat Hippocampal Cultures (compound 1 μM), 16 and 17 (2×); with Rat Hippocampal Cultures (compound 10 μM), 10 and 14 and 15. For the same compound, the “Cell viability (Cell Titer Glow), Mean” value in data set [1] (compound 0.1 μM, SD 35, vehicle mean 1, *p < 0.05) is reported as 63*; in data set [1] (compound 1 μM, SD 16, vehicle mean 1), 36; in data set [1] (compound 10 μM, SD 22, vehicle mean 1) it was 26; with Rat Hippocampal Cultures (compound 0.1 μM, SD 1, **p < 0.01) it was 25**; with Rat Hippocampal Cultures (compound 1 μM, SD 0.6) it was 17; in the data set with Rat Hippocampal Cultures (compound 10 μM, SD 3) it was 13. The “Protection of neurons from death and/or damage from oxidative stress or oxidative injury” value with Rat Hippocampal Cultures (summary in words of Tables 4 and 5 (rat hippocampal and cerebral cortical cultures, 150 μM H2O2)) is listed as “effective at protecting neurons from death and/or damage from oxidative stress or oxidative injury”.
On to `NS(=O)(=O)NCC1CCc2ccccc2O1` (centres unmarked) [Compound #10, Chroman-2-ylmethylsulfamide], for which the melting point lay in the range of 100 to 101 °C.
